Reference: patent publication US9044038B2, “Method of improving sweetness qualities of stevia extract” (SAN-EI GEN F.F.I., INC., priority 2007, dated 2015)
Peptide text beside a SMILES is read from it.

Legend:
[1] = Concentration of sweetener with the same degree of sweetness as a 6% aqueous sucrose solution (Example 14, Table 20); assay type: in vivo
Protocol: Aqueous solutions containing various sweeteners (stevia extract, siraitia grosvenori extract, licorice extract, thaumatin, aspartame, and neotame) in the concentrations shown in Table 20 were prepared.

panelists [2] = assay: Improvement in sweetness quality of sweeteners by additives, panel score (Example 14); assay type: in vivo; details: for improvement in sweetness quality, average score of twelve panelists: vs sweetener alone, 2 improvement, 1 slight improvement, 0 no improvement; for improvement in the sweetness quality of stevia extract: additive added to 0.03% stevia extract aqueous solution
Protocol: Aqueous solutions containing various sweeteners (stevia extract, siraitia grosvenori extract, licorice extract, thaumatin, aspartame, and neotame) in the concentrations shown in Table 20 were prepared. […] The evaluation was conducted by scoring the improvement in sweetness quality based on the criteria described below in comparison with an aqueous solution containing only each of the sweeteners (Control).

panelists [3] = assay: as above; assay type: in vivo; details: additive added to 0.03% stevia extract aqueous solution
[4] = Concentration having the same degree of sweetness as a 5% aqueous sucrose solution (Example 1, Table 1); assay type: in vivo
Description: The degree of sweetness of rebaudioside A and that of mogroside V depends on the pH. […] Citric acid and trisodium citrate were used to prepare pH3 and pH4.5 solutions, and sodium bicarbonate was used to prepare pH7 solutions.

[5] = general statement in description; cited from earlier work
[6] = additive Gentiooligosaccharide (Gentose#45) 0.4%
[7] = additive Highly branched cyclic dextrin (Cluster Dextrin) 0.07%
[8] = additive Magnesium chloride 0.05%
[9] = additive Magnesium sulfate 0.05%

Molecule | Concentration (%) exhibiting the same degree of sweetness as a 6% aqueous sucrose solution [1] [%] | improvement in sweetness quality, average score of twelve panelists (panelists [2]; [6]) [points] | improvement in sweetness quality, average score of twelve panelists (panelists [2]; [7]) [points] | improvement in sweetness quality, average score of twelve panelists (panelists [2]; [8]) [points] | improvement in sweetness quality, average score of twelve panelists (panelists [2]; [9]) [points] | improvement in sweetness quality, average score of twelve panelists (panelists [2]; additive Naringin 0.0025%) [points] | remaining aftertaste of sweetness in stevia extract (panelists [3]) | richness (body) of stevia extract (panelists [3]) | also measured
COC(=O)[C@H](Cc1ccccc1)NC(=O)[C@@H](N)CC(=O)O [Aspartame, aspartame] (H-Asp-Phe-OMe) | 0.038 | 0.3 | 0.3 | 0.8 | 0.7 | 0.3 |  |  | 
[Cl-].[Cl-].[Mg+2] [Magnesium chloride, magnesium chloride] |  |  |  |  |  |  | reduced | increased | improvement in the sweetness quality of stevia extract (panelists [2]): remarkably excellent improvements
O=S(=O)([O-])[O-].[Mg+2] [Magnesium sulfate, magnesium sulfate] |  |  |  |  |  |  | reduced | increased | improvement in the sweetness quality of stevia extract (panelists [2]): remarkably excellent improvements
C[C@H](CC[C@@H](O[C@@H]1O[C@H](CO[C@@H]2O[C@H](CO)[C@@H](O)[C@H](O)[C@H]2O)[C@@H](O)[C@H](O)[C@H]1O[C@@H]1O[C@H](CO)[C@@H](O)[C@H](O)[C@H]1O)C(C)(C)O)[C@H]1CC[C@@]2(C)[C@@H]3CC=C4[C@@H](CC[C@H](O[C@@H]5O[C@H](CO[C@@H]6O[C@H](CO)[C@@H](O)[C@H](O)[C@H]6O)[C@@H](O)[C@H](O)[C@H]5O)C4(C)C)[C@]3(C)[C@H](O)C[C@]12C [Mogroside V, mogroside V] |  |  |  |  |  |  |  |  | concentration having the same degree of sweetness as a 5% aqueous sugar solution ([4]; pH 3, substance singly): 0.03%; concentration having the same degree of sweetness as a 5% aqueous sugar solution ([4]; pH 4.5, substance singly): 0.03%; concentration having the same degree of sweetness as a 5% aqueous sugar solution ([4]; pH 7, substance singly): 0.0255%; degree of sweetness (sweetness intensity) [5]: about 300 times that of sucrose
C[C@@H]1O[C@@H](O[C@H]2[C@H](Oc3cc(O)c4c(c3)O[C@H](c3ccc(O)cc3)CC4=O)O[C@H](CO)[C@@H](O)[C@@H]2O)[C@H](O)[C@H](O)[C@H]1O [Naringin, naringin] |  |  |  |  |  |  | reduced | increased | 
COC(=O)[C@H](Cc1ccccc1)NC(=O)[C@H](CC(=O)O)NCCC(C)(C)C [Neotame, neotame] | 0.0008 | 0.8 | 0.8 | 0.8 | 0.8 | 1.0 |  |  | 
C=C1C[C@@]23CC[C@H]4[C@@](C)(CCC[C@@]4(C)C(=O)O[C@@H]4O[C@H](CO)[C@@H](O)[C@H](O)[C@H]4O)[C@@H]2CC[C@]1(O[C@@H]1O[C@H](CO)[C@@H](O)[C@H](O[C@@H]2O[C@H](CO)[C@@H](O)[C@H](O)[C@H]2O)[C@H]1O[C@@H]1O[C@H](CO)[C@@H](O)[C@H](O)[C@H]1O)C3 [Rebaudioside A, rebaudioside A] |  |  |  |  |  |  |  |  | concentration having the same degree of sweetness as a 5% aqueous sugar solution ([4]; pH 3, substance singly): 0.0228%; concentration having the same degree of sweetness as a 5% aqueous sugar solution ([4]; pH 4.5, substance singly): 0.0219%; concentration having the same degree of sweetness as a 5% aqueous sugar solution ([4]; pH 7, substance singly): 0.02%
thaumatin | 0.0024 | 0.8 | 0.5 | 1.0 | 1.3 | 0.7 |  |  | 
